Data from US7247438B1, “Methods of identifying agents which enhance caspase activity” (priority 1997, dated 2007).
Entries after “also recorded” stand apart in the source; their conditions may differ. Peptide text beside a SMILES is read from it. * marks the point of attachment. Cbz = O=C(OCc1ccccc1)*; CH2F = FC*

Assays:
[1] = biological target: T1, caspase-1 (Homo sapiens, UniProt P29466); details: caspase-1 versus caspase-3; cited from earlier work
T1 sequence (P29466 120-297 limits assumed): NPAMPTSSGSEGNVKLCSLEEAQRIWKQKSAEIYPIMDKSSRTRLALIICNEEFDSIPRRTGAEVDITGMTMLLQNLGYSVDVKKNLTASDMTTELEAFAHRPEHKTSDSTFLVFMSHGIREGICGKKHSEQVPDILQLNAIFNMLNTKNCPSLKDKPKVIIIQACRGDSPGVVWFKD
T1 sequence (P29466 317-404 limits assumed): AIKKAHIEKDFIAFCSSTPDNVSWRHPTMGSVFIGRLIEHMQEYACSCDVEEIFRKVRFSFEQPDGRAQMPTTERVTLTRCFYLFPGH

[2] = test system: CD4+ CD8+ DP thymocytes in FTOC of C57BL/6 mice; experiment: glucocorticoid (dexamethasone)-induced DP thymocyte death in FTOC, FACS analysis; type: cell-based, mouse
[3] = test system: thymic caspase (~17 kD subunit); experiment: Western blot of thymic lysates: binding of biotinylated substrate to activated thymic caspase and competition; parameters: species or system mouse; details: for blocking of biotin-DEVDamk binding to the antigen-activated caspase: pretreatment of thymic lysates with excess (100-fold molar, FIG. 2D) of inhibitor
[4] = biological target: T2, recombinant Mch2a (caspase-6) (Homo sapiens, UniProt P55212); experiment: Western blot: binding of biotinylated substrate to recombinant Mch2a; details: FIG. 2B; 15 minutes with 2 mM biotin-DEVDamk
T2 construct: made in house
T2 sequence (P55212 24-179 limits assumed): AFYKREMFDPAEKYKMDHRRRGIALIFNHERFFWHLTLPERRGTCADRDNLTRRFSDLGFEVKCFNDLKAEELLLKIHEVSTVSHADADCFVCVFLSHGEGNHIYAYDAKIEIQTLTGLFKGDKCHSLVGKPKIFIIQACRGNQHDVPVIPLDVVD
T2 sequence (P55212 194-293 limits assumed): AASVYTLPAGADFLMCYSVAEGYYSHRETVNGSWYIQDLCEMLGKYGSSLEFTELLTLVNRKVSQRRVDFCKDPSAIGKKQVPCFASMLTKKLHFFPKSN

[5] = biological target: T3, recombinant Yama/caspase-3 (Homo sapiens, UniProt P42574); experiment: Western blot: binding of biotinylated substrate to recombinant Yama; details: FIG. 2B; 15 minutes with 2 mM biotin-DEVDamk
T3 construct: made in house
T3 sequence (P42574 29-175 limits assumed): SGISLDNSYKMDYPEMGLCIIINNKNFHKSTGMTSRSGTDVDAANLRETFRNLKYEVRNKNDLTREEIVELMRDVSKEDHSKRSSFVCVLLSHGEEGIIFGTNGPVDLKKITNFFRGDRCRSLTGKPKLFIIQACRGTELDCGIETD
T3 sequence (P42574 176-277 limits assumed): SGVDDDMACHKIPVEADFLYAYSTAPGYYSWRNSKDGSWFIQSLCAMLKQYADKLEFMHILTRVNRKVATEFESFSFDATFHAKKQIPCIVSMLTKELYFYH

[6] = test system: DP thymocytes in FTOC of N15 TCR tg RAG-2−/− H-2b mice; type: cell-based, mouse; details: for effect on antigen (VSV8)-induced depletion of DP thymocytes: N15 FTOC, 2 hours with 100 μM inhibitor followed by 18 hours with 10 μM VSV8
[7] = test system: Drosophila Schneider cells; details: added to Drosophila Schneider cells; cited from earlier work
[8] = test system: CD4+ CD8+ DP thymocytes in FTOC of C57BL/6 mice; experiment: anti-CD3ε mAb (2C11)-induced deletion of DP thymocytes in FTOC, FACS analysis; type: cell-based, mouse; parameters: effect on anti-CD3ε (2C11) mAb-induced deletion of DP thymocytes: dose or concentration left out as unconfirmed
[9] = test system: thymocytes in N15 tg RAG-2−/− H-2b FTOC; type: cell-based, mouse
[10] = test system: activated thymic caspase in N15 tg RAG-2−/− H-2b FTOC; type: cell-based, mouse; details: for effect of pretreatment on VSV8-induced caspase activation (biotin-DEVDamk staining): FTOC, inhibitor pretreatment, then VSV8 4 hours
[11] = test system: Rat thymocytes in suspension; details: cited from earlier work
[12] = test system: thymocytes in non-tg RAG-2−/− FTOC; type: cell-based, mouse
[13] = test system: thymic caspase; experiment: caspase activation in thymic lysates of adult mice after tail vein peptide injection (Western blot); details: mouse, in vivo
[14] = test system: activated thymic caspase in adult N15 tg RAG-2−/− H-2b mice; details: mouse, in vivo

CC(=O)N[C@@H](Cc1ccc(O)cc1)C(=O)N[C@H](C(=O)N[C@@H](C)C(=O)N[C@H](C=O)CC(=O)O)C(C)C [Ac-YVAD-CHO]
fold lower concentration to inhibit caspase-1 than required to inhibit caspase-3 [1]: ~10,000 fold

C[C@@H]1C[C@H]2[C@@H]3CCC4=CC(=O)C=C[C@]4(C)[C@@]3(F)[C@@H](O)C[C@]2(C)[C@@]1(O)C(=O)CO [Dexamethasone]
percentage of DP thymocytes ([2]; FTOC, control 74%): 19%

Cc1cccc(C)c1C(=O)OCC(=O)C(CC(=O)O)NC(=O)[C@@H](NC(=O)[C@H](CCC(=O)O)NC(=O)[C@H](CC(=O)O)NC(=O)CCCC[C@@H]1SC[C@@H]2NC(=O)N[C@@H]21)C(C)C (some centres unmarked) [biotin-DEVDamk, N-(Biotinylaspartylglutamylvalinyl)aspartic acid [(2,6-Dimethylbenzoyl)oxy]methyl Ketone]
detection of / affinity for the activated thymic caspase by biotinylated substrate [3]: highest affinity | binding of biotinylated substrate to recombinant Mch2a (caspase-6) [4]: bind | binding of biotinylated substrate to recombinant Yama/caspase-3 [5]: bind

COC(=O)C[C@H](NC(=O)[C@H](C)NC(=O)[C@@H](NC(=O)OCc1ccccc1)C(C)C)C(=O)CF [zVADfmk, N-benzyloxycarbonyl-Val-Ala-Asp-fluoromethylketone, b-methyl ester] (Cbz-Val-Ala-Asp(OMe)-CH2F)
effect on dexamethasone (glucocorticoid)-induced death/deletion of DP thymocytes ([2]; 2-hour pretreatment with 100 μM zVADfmk): protects; also recorded: blocked | blocking of biotin-DEVDamk binding to the antigen-activated caspase [3]: blocks binding; also recorded: prevents binding | effect on antigen (VSV8)-induced depletion of DP thymocytes [6]: completely blocks; also recorded: blocked; also recorded: blocks depletion | effect on apoptosis induced by expression of REAPER protein [7]: blocks the induction of apoptosis | effect on anti-CD3ε (2C11) mAb-induced deletion of DP thymocytes ([8]; 2-hour preincubation, harvested 18 hours later): inhibited; also recorded: blocked | effect of agent alone on percentage of DP thymocytes in FTOC ([8]; FTOC C57BL/6, no 2C11): does not alter | number of TdT (TUNEL) positive apoptotic cells in histological sections (in words) [9]: reduces the number of TdT+ cells to that of the control; also recorded: blocked | effect of pretreatment on VSV8-induced caspase activation (biotin-DEVDamk staining) [10]: blocked | effect on glucocorticoid-induced death [11]: blocked

COC(=O)CC(NC(=O)C(C)NC(=O)C(NC(=O)OCc1ccccc1)C(C)C)C(C)=O (centres unmarked) [zVADmk, N-(Z-Valinylalanyl)aspartic acid methyl ketone, b-methyl ester]
blocking of biotin-DEVDamk binding to the antigen-activated caspase [3]: does not block | effect on antigen (VSV8)-induced depletion of DP thymocytes [6]: has no effect; also recorded: fails to block | number of TdT (TUNEL) positive apoptotic cells in histological sections (in words) [9]: levels of TdT positive cells similar to cultures treated with VSV8 alone; also recorded: no effect | effect of pretreatment on VSV8-induced caspase activation (biotin-DEVDamk staining) [10]: not

FAPGNYPAL [SEV9]
depletion/death of DP thymocytes induced by peptide (in words) [6]: does not result in thymocyte death

RGYVYQGL [VSV8]
depletion/death of DP thymocytes induced by peptide (in words) [6]: massive depletion | percent CD4+ CD8+ DP thymocytes [6]: 21 | TdT positive cells mm2, non-tg [12]: 9 mm2 | time to induction of an active caspase after tail vein injection [13]: ≤ 2 h | TdT positive cells mm2, N15tg #1 [9]: 429 mm2 | TdT positive cells mm2, N15tg #2 [9]: 456 mm2 | TdT positive cells mm2, N15tg #3 [9]: 441 mm2 | number of TdT (TUNEL) positive apoptotic cells in histological sections (in words) [9]: obvious increase | biotin-DEVDamk staining of thymic sections [14]: widespread biotin-DEVDamk staining | biotin-DEVDamk staining (activation of thymic caspase) in FTOC sections [10]: widespread biotin-DEVDamk staining throughout the cortex
